≈ marks a conversion by molar mass, not a printed value. Entries after “also recorded” stand apart in the source; their conditions may differ.
What was measured:
Assay type in all cases: physicochemical
[1] = Hygroscopicity by DVS; settings: 25 °C
Description: (§1) X-ray Powder Diffractometer (XRPD): XRPD analysis was performed using a Bruker D8 Advance X-ray powder diffractometer. Analysis was performed using parameters as set forth below.
Dynamic Vapor Sorption (DVS): DVS analysis was performed using Intrinsic. Analysis was performed using parameters as set forth below.
Hygroscopicity: The hygroscopicity for Form M was examined by DVS.

[2] = Solubility in aqueous media, 37 °C
Description: as §1
(§2) High Performance Liquid Chromatograph (HPLC): HPLC analysis was performed using SHIMADZU LC-20AD/Agilent 1260 infinity II Binary Pump. Analysis was performed using parameters as set forth below.
Solubility: 6.39 mg of the L-malate salt Form M (equal to 4 mg free base) was weighed into an 8 mL vial. 2 mL of aqueous media was added, respectively. The suspension was stirred at 37 °C with 400 rpm for 2 h and 24 h. The suspension was taken out after 2 h and 24 h and then centrifuged at 14,000 rpm for 5 min. The supernatant was analyzed by HPLC. The pH of the supernatant was tested. The solids obtained (wet cakes) were characterized by XRPD. Table 3 summarizes the observation of the solubility study.

[3] = Bulk Stability (solid state; HPLC purity, color, XRPD)
Description: as §1, §2
Bulk Stability: Form M was evaluated for bulk stability studies. The bulk stability study was conducted in 3 conditions including 25 °C/92% RH in an open container, 40 °C/75% RH in an open container and 60 °C in a tight container for 1 week, 2 weeks and 4 weeks, respectively.

[4] = Crystallinity after drying under vacuum
Description: as §1
To explore further optimization of the crystallinity of the salt, about 25 mg of dry cake were re-equilibrated in 7 different solvents for 3 days. Solids obtained were analyzed by XRPD and 1H-NMR. […]

[5] = 25 °C/92% RH, open container, 1 week
[6] = 40 °C/75% RH, open container, 1 week
[7] = 40 °C/75% RH, open container, 2 weeks
[8] = 40 °C/75% RH, open container, 4 weeks
[9] = 60 °C, tight container, 2 weeks

Question: Which “Desorp. (%)” value ([1]; 0% RH, first desorption) does the source give for `CN1C[C@H]2C[C@@]2(C#Cc2cc3ncnc(Nc4cccc(Cl)c4F)c3cc2NC(=O)/C=C/CN2CCOCC2)C1` [Form M, (E)-N-(4-((3-chloro-2-fluorophenyl)amino)-7-(((1R,5S)-3-methyl-3-azabicyclo[3.1.0]hexan-1-yl)ethynyl)quinazolin-6-yl)-4-morpholinobut-2-enamide] here?
Answer: 0.0%

Question: And the “Sorp. (%)” value ([1]; 0% RH, second sorption)?
Answer: 0.0%

Question: And the “Desorp. (%)” value ([1]; 10% RH, first desorption)?
Answer: 1.4%

Question: And the “Sorp. (%)” value ([1]; 10% RH, second sorption)?
Answer: 0.6%

Question: And the “Desorp. (%)” value ([1]; 20% RH, first desorption)?
Answer: 2.5%

Question: What about the “Sorp. (%)” value ([1]; 20% RH, second sorption) of the same compound?
Answer: 1.4%

Question: What about the “Desorp. (%)” value ([1]; 30% RH, first desorption) of the same compound?
Answer: 3.6%

Question: What about the “Sorp. (%)” value ([1]; 30% RH, second sorption) of the same compound?
Answer: 2.2%

Question: And the “Desorp. (%)” value ([1]; 40% RH, first desorption)?
Answer: 5.0%

Question: And the “Sorp. (%)” value ([1]; 40% RH, first sorption)?
Answer: 4.1%

Question: And the “Desorp. (%)” value ([1]; 40% RH, second desorption)?
Answer: 5.2%

Question: And the “Sorp. (%)” value ([1]; 40% RH, second sorption)?
Answer: 3.1%

Question: And the “Desorp. (%)” value ([1]; 50% RH, first desorption)?
Answer: 6.1%

Question: What about the “Sorp. (%)” value ([1]; 50% RH, first sorption) of the same compound?
Answer: 4.4%

Question: And the “Desorp. (%)” value ([1]; 50% RH, second desorption)?
Answer: 6.4%

Question: What about the “Sorp. (%)” value ([1]; 50% RH, second sorption) of the same compound?
Answer: 4.2%

Question: What about the “Desorp. (%)” value ([1]; 60% RH, first desorption) of the same compound?
Answer: 7.4%

Question: And the “Sorp. (%)” value ([1]; 60% RH, first sorption)?
Answer: 4.9%

Question: What about the “Desorp. (%)” value ([1]; 60% RH, second desorption) of the same compound?
Answer: 7.4%

Question: And the “Sorp. (%)” value ([1]; 60% RH, second sorption)?
Answer: 5.6%

Question: What about the “Desorp. (%)” value ([1]; 70% RH, first desorption) of the same compound?
Answer: 9.3%

Question: And the “Sorp. (%)” value ([1]; 70% RH, first sorption)?
Answer: 5.6%

Question: What about the “Desorp. (%)” value ([1]; 70% RH, second desorption) of the same compound?
Answer: 8.7%

Question: What about the “Sorp. (%)” value ([1]; 70% RH, second sorption) of the same compound?
Answer: 7.5%

Question: What about the “Desorp. (%)” value ([1]; 80% RH, first desorption) of the same compound?
Answer: 13.5%

Question: And the “Sorp. (%)” value ([1]; 80% RH, first sorption)?
Answer: 6.9%

Question: And the “Desorp. (%)” value ([1]; 80% RH, second desorption)?
Answer: 11.4%

Question: And the “Sorp. (%)” value ([1]; 80% RH, second sorption)?
Answer: 9.7%

Question: What about the “Desorp. (%)” value ([1]; 90% RH, first desorption) of the same compound?
Answer: 29.5%

Question: And the “Sorp. (%)” value ([1]; 90% RH, first sorption)?
Answer: 15.3%

Question: What about the “Desorp. (%)” value ([1]; 90% RH, second desorption) of the same compound?
Answer: 20.9%

Question: What about the “Sorp. (%)” value ([1]; 90% RH, second sorption) of the same compound?
Answer: 15.8%

Question: And the “Desorp. (%)” value ([1]; 95% RH, first desorption)?
Answer: 41.2%

Question: And the “Sorp. (%)” value ([1]; 95% RH, first sorption)?
Answer: 41.2%

Question: And the “Desorp. (%)” value ([1]; 95% RH, second desorption)?
Answer: 31.5%

Question: What about the “Sorp. (%)” value ([1]; 95% RH, second sorption) of the same compound?
Answer: 31.5%

Question: What about the “XRPD after DVS test” value ([1]; after cycle 40-95-0-95-40% RH) of the same compound?
Answer: No form change

Question: And the DVS ([1]; at 70% RH)?
Answer: 1.5% at 70% RH

Question: What about the DVS ([1]; at 95% RH) of the same compound?
Answer: 37.1% at 95% RH

Question: And the Solubility ([2]; FaSSIF-v1, pH 6.5, 37 °C, 2 h)?
Answer: Degradation

Question: What about the “pH of the supernatant” value ([2]; FaSSIF-v1, pH 6.5, 37 °C, 2 h) of the same compound?
Answer: pH 4.9

Question: And the Solubility ([2]; FaSSIF-v1, pH 6.5, 37 °C, 24 h)?
Answer: Degradation

Question: What about the “pH of the supernatant” value ([2]; FaSSIF-v1, pH 6.5, 37 °C, 24 h) of the same compound?
Answer: pH 4.8

Question: What about the Solubility ([2]; FeSSIF-v1, pH 5.0, 37 °C, 2 h) of the same compound?
Answer: Degradation

Question: And the “pH of the supernatant” value ([2]; FeSSIF-v1, pH 5.0, 37 °C, 2 h)?
Answer: pH 4.9

Question: And the Solubility ([2]; FeSSIF-v1, pH 5.0, 37 °C, 24 h)?
Answer: Degradation

Question: What about the “pH of the supernatant” value ([2]; FeSSIF-v1, pH 5.0, 37 °C, 24 h) of the same compound?
Answer: pH 4.8

Question: What about the “pH of the supernatant” value ([2]; SGF, pH 2.0, 37 °C, 2 h) of the same compound?
Answer: pH 2.8

Question: What about the solubility at 2 h ([2]; SGF, pH 2.0, 37 °C, 2 h) of the same compound?
Answer: > 2000 µg/mL

Question: And the “pH of the supernatant” value ([2]; SGF, pH 2.0, 37 °C, 24 h)?
Answer: pH 2.6

Question: What about the solubility at 24 h ([2]; SGF, pH 2.0, 37 °C, 24 h) of the same compound?
Answer: > 2000 µg/mL

Question: What about the “pH of the supernatant” value ([2]; Water, 37 °C, 2 h) of the same compound?
Answer: pH 4.3

Question: And the solubility at 2 h ([2]; Water, 37 °C, 2 h)?
Answer: 1490 µg/mL (≈ 2.65 mM)

Question: What about the “pH of the supernatant” value ([2]; Water, 37 °C, 24 h) of the same compound?
Answer: pH 4.3

Question: What about the solubility at 24 h ([2]; Water, 37 °C, 24 h) of the same compound?
Answer: 1780 µg/mL (≈ 3.17 mM)

Question: And the solubility at 2 h ([2]; aqueous buffer, pH 4.5 (50 mM) acetate buffer, 37 °C, 2 h)?
Answer: > 2000 µg/mL

Question: And the solubility at 24 h ([2]; aqueous buffer, pH 4.5 (50 mM) acetate buffer, 37 °C, 24 h)?
Answer: > 2000 µg/mL

Question: What about the solubility at 2 h ([2]; aqueous buffer, pH 6.8 (50 mM) phosphate buffer, 37 °C, 2 h) of the same compound?
Answer: 183 µg/mL (≈ 0.326 mM)

Question: What about the solubility at 24 h ([2]; aqueous buffer, pH 6.8 (50 mM) phosphate buffer, 37 °C, 24 h) of the same compound?
Answer: 189 µg/mL (≈ 0.336 mM)

Question: And the “pH of the supernatant” value ([2]; pH 1.0 (0.1N HCl), 37 °C, 2 h)?
Answer: pH 0.9

Question: And the solubility at 2 h ([2]; pH 1.0 (0.1N HCl), 37 °C, 2 h)?
Answer: > 2000 µg/mL

Question: What about the “pH of the supernatant” value ([2]; pH 1.0 (0.1N HCl), 37 °C, 24 h) of the same compound?
Answer: pH 0.8

Question: And the solubility at 24 h ([2]; pH 1.0 (0.1N HCl), 37 °C, 24 h)?
Answer: > 2000 µg/mL

Question: And the “pH of the supernatant” value ([2]; pH 4.5 (50 mM) acetate buffer, 37 °C, 2 h, marked *)?
Answer: pH 4.5*

Question: And the “pH of the supernatant” value ([2]; pH 4.5 (50 mM) acetate buffer, 37 °C, 24 h)?
Answer: pH 4.4

Question: What about the “pH of the supernatant” value ([2]; pH 6.8 (50 mM) phosphate buffer, 37 °C, 2 h) of the same compound?
Answer: pH 6.2

Question: What about the “pH of the supernatant” value ([2]; pH 6.8 (50 mM) phosphate buffer, 37 °C, 24 h) of the same compound?
Answer: pH 6.3

Question: What about the “Bulk (XRPD)” value [3, 5] of the same compound?
Answer: No form change (Agglomeration)

Question: What about the Color [3, 5] of the same compound?
Answer: No change of color

Question: What about the Color ([3]; 25 °C/92% RH, open container, 2 weeks) of the same compound?
Answer: No change of color

Question: And the “Bulk (XRPD)” value ([3]; 25 °C/92% RH, open container, 2 weeks, no form change after dried under ambient condition)?
Answer: Sticky sample;; also recorded: No form change after dried under ambient

Question: And the Color ([3]; 25 °C/92% RH, open container, 4 weeks)?
Answer: No change of color

Question: And the “Bulk (XRPD)” value ([3]; 25 °C/92% RH, open container, 4 weeks, no form change after dried under ambient condition)?
Answer: Sticky sample;; also recorded: No form change after dried under ambient

Question: What about the “Bulk (XRPD)” value [3, 6] of the same compound?
Answer: No form change

Question: What about the Color [3, 6] of the same compound?
Answer: No change of color

Question: What about the “Bulk (XRPD)” value [3, 7] of the same compound?
Answer: No form change

Question: And the Color [3, 7]?
Answer: No change of color

Question: What about the “Bulk (XRPD)” value [3, 8] of the same compound?
Answer: No form change

Question: And the Color [3, 8]?
Answer: No change of color

Question: What about the “Bulk (XRPD)” value ([3]; 60 °C, tight container, 1 week) of the same compound?
Answer: No form change (Crystallinity decreased)

Question: What about the Color ([3]; 60 °C, tight container, 1 week) of the same compound?
Answer: No change of color

Question: What about the “Bulk (XRPD)” value [3, 9] of the same compound?
Answer: No form change (Crystallinity decreased)

Question: And the Color [3, 9]?
Answer: No change of color

Question: And the Color ([3]; 60 °C, tight container, 4 weeks)?
Answer: No change of color

Question: And the “Bulk (XRPD)” value ([3]; 60 °C, tight container, 4 weeks, (Crystallinity decreased))?
Answer: No form change; also recorded: (Crystallinity decreased)

Question: And the “Initial Purity by HPLC” value ([3]; initial, before storage)?
Answer: 94.0%

Question: And the crystallinity after drying [4]?
Answer: crystallinity decreased

Source: patent US20260356821A1, “SOLID FORMS OF AN ERBB INHIBITOR” (Black Diamond Therapeutics, Inc., priority 2023, published 2026)
